The values that follow come from ChEMBL document CHEMBL3286286, “2-(2-Arylphenyl)benzoxazole As a Novel Anti-Inflammatory Scaffold: Synthesis and Biological Evaluation” (ACS Med Chem Lett, 2014).

For test [1], the target named is T1, Prostaglandin G/H synthase 1 (Ovis aries) (UniProt P05979).
T1 sequence (whole entry): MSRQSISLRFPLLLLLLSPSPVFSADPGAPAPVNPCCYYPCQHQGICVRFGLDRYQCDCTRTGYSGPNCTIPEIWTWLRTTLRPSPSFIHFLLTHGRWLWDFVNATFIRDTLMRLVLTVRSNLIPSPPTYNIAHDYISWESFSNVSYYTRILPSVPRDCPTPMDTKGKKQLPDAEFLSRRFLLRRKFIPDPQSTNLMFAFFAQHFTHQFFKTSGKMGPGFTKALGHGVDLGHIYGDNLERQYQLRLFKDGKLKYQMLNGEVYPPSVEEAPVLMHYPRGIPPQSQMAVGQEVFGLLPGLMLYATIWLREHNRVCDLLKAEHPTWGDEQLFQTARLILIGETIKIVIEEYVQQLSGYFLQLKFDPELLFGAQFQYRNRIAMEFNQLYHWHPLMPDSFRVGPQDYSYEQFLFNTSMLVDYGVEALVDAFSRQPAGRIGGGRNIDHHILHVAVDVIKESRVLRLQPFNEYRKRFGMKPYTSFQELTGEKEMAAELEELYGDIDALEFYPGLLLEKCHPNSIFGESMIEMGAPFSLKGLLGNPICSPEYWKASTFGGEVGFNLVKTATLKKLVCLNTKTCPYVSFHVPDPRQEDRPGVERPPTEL
Kind of test: Inhibition of ovine COX1 using arachidonic acid as substrate at 10 uM.

Test [2] in a line: Selectivity for human recombinant COX2 to ovine COX1.
The target of test [3] is T2, Prostaglandin G/H synthase 2 (Homo sapiens) (UniProt P35354).
T2 sequence (whole entry): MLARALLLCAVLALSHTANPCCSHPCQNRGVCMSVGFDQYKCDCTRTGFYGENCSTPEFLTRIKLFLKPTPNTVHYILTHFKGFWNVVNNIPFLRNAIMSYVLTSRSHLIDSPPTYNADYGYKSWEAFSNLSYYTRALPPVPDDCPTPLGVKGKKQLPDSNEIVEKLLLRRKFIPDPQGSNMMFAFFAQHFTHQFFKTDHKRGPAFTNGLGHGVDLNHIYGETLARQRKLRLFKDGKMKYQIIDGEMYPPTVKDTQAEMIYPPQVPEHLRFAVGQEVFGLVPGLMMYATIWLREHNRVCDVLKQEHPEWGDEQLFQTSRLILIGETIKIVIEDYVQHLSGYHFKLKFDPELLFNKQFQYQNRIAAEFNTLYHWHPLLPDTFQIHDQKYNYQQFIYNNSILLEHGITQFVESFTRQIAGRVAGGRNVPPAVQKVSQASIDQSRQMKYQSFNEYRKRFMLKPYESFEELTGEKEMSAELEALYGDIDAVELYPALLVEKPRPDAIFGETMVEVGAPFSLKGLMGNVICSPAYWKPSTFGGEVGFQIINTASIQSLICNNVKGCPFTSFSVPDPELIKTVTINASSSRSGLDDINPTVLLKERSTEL
As to conditions: at 10 µM.
Description: Inhibition of human recombinant COX2 using arachidonic acid as substrate at 10 uM

Test [4] in a line: Selectivity index, ratio of IC50 for ovine COX1 to IC50 for human recombinant COX2.
Test [5] deals with Rattus norvegicus. Kind of test: Antiinflammatory activity in Wistar albino rat assessed as reduction in carrageenan-induced hind paw volume at 12.5 mg/kg, ip administered 10 mins after carrageenan-challenge measured up to 3 hrs. As to conditions: route intraperitoneal. Type of test: functional.
Test [6] concerns Rattus norvegicus. Kind of test: Antiinflammatory activity in Wistar albino rat assessed as reduction in carrageenan-induced hind paw volume at 25 mg/kg, ip administered 10 mins after carrageenan-challenge measured up to 3 hrs. It is filed as functional. As to conditions: route intraperitoneal.
Test [7] deals with T3, Prostaglandin G/H synthase 1 (Ovis aries, UniProt P05979).
T3 sequence (P05979 whole entry): T1 sequence (whole entry)
Kind of test: Inhibition of ovine COX1 using arachidonic acid as substrate.

The target in test [8] is T4, Prostaglandin G/H synthase 2 (Homo sapiens, UniProt P35354).
T4 sequence (P35354 whole entry): T2 sequence (whole entry)
Kind of test: Inhibition of human recombinant COX2 using arachidonic acid as substrate.

For `COc1ccc(-c2ccccc2-c2nc3ccccc3o2)cc1`, the inhibition in test [1] was 19.1%; in test [3], 14.8%. Besides, the Selectivity ratio in test [2] stood at 0.78.
Consider `CS(=O)(=O)c1ccc(-c2ccccc2-c2nc3ccccc3o2)cc1`, for which the inhibition in test [1] came to 10.8%; in test [3] it was 75.1%. The Ratio IC50 in test [4] stood at 33.6. Also, the inhibition in vivo at 12.5 mg/kg in the test with Rattus norvegicus [5] was 62.5%. Besides, in the test with Rattus norvegicus [6], the inhibition in vivo at 25 mg/kg is 75%. In addition, the IC50 in test [7] turned out to be 45.1 µM; in test [8] it was 1.34 µM. Besides, in test [2], the Selectivity ratio was 6.96.
`Cc1ccc(-c2cc(C(F)(F)F)nn2-c2ccc(S(N)(=O)=O)cc2)cc1` [CELECOXIB]: in the test with Rattus norvegicus [5], the inhibition in vivo at 12.5 mg/kg came out at 60.6%. In addition, the inhibition in vivo at 25 mg/kg in the test with Rattus norvegicus [6] was 74.6%.
For `COc1ccc(-c2ccccc2-c2nc3ccccc3o2)cc1OC1CCCC1`, the inhibition amounted to 17.1% in test [1] and 14.8% in test [3]. For the same compound, the Selectivity ratio in test [2] was determined as 0.87.
Turning to `COc1ccc(-c2ccccc2-c2nc3ccccc3o2)cc1OC`, the inhibition came out at 58.2% in test [1] and 86.6% in test [3]. Further, the Selectivity ratio in test [2] was found to be 1.49.
As for `c1ccc(-c2ccccc2-c2nc3ccccc3o2)cc1`, the inhibition in test [1] was 24%; in test [3], 10.6%. For the same compound, the Selectivity ratio in test [2] came out at 0.44.
In the case of `FC(F)(F)c1ccc(-c2ccccc2-c2nc3ccccc3o2)cc1`, the inhibition was 3.45% in test [1] and 11.7% in test [3]. The Selectivity ratio in test [2] is 3.38.
For the compound `COc1cccc(-c2ccccc2-c2nc3ccccc3o2)c1OC`, the inhibition in test [1] was determined as 74.9%; in test [3] it was 59.9%. The Selectivity ratio in test [2] amounted to 0.8.
Turning to `COc1ccc(-c2ccccc2-c2nc3ccccc3o2)cc1Cl`, the inhibition amounted to 6.45% in test [1] and 81.4% in test [3]. Further, the Ratio IC50 in test [4] was found to be 69.8. Further, in the test with Rattus norvegicus [5], the inhibition in vivo at 12.5 mg/kg came to 53.9%. Further, the inhibition in vivo at 25 mg/kg with Rattus norvegicus [6] is 64.4%. The half-inhibitory concentration (IC50) turned out to be 46.8 µM in test [7] and 0.67 µM in test [8]. Further, the Selectivity ratio in test [2] was 12.6.
Regarding `N#Cc1ccc(-c2ccccc2-c2nc3ccccc3o2)cc1`, the inhibition in test [1] stood at 8.46%; in test [3], 40.9%. Further, the Selectivity ratio in test [2] was found to be 4.83.
Take `O=Cc1ccc(-c2ccccc2-c2nc3ccccc3o2)cc1`: the inhibition was found to be 6.58% in test [1] and 58% in test [3]. The Selectivity ratio in test [2] was 8.81.
Consider `O=C(O)Cc1ccccc1Nc1c(Cl)cccc1Cl` [DICLOFENAC], for which, in the test on Rattus norvegicus [5], the inhibition in vivo at 12.5 mg/kg was found to be 67.3%. Also, in the test with Rattus norvegicus [6], the inhibition in vivo at 25 mg/kg came out at 84.6%.
Turning to `CSc1ccc(-c2ccccc2-c2nc3ccccc3o2)cc1`, the inhibition in test [1] was 4.07%; in test [3], 43.5%. The Selectivity ratio in test [2] is 10.7.
Taken in the same sequence, the figures for `Fc1ccc(-c2ccccc2-c2nc3ccccc3o2)cc1` were 1.65%, 8.46% and 1.57.
Take `Oc1ccc(-c2ccccc2-c2nc3ccccc3o2)cc1Cl`: the inhibition in test [1] worked out at 7.56%; in test [3], 94.9%. In addition, the Ratio IC50 in test [4] is 113. In addition, the inhibition in vivo at 12.5 mg/kg in the test with Rattus norvegicus [5] was 68.3%. In addition, the inhibition in vivo at 25 mg/kg with Rattus norvegicus [6] came to 82.7%. Further, the concentration for half-maximal inhibition (IC50) was found to be 46.2 µM in test [7] and 0.41 µM in test [8]. For the same compound, the Selectivity ratio in test [2] was 12.6.
As for `Clc1cc(-c2ccccc2-c2nc3ccccc3o2)ccc1OCc1ccccc1`, the figures for the inhibition in test [1] and in test [3] were 10.3% and 17%, respectively. Also, the Selectivity ratio in test [2] amounted to 1.65.
In the same order, the values of `CC(C)Oc1ccc(-c2ccccc2-c2nc3ccccc3o2)cc1Cl` are 2.19%, 33.9% and 15.5.
